Drawing on publication PMC4004260 (Biochemistry, 2014), this text covers Km and stoichiometry N for three molecules.

The test system of test [1] is gpASNase3 (guinea pig L-asparaginase type III). The experiment in a line: NADH-coupled spectrophotometric assay. The test is classed as biochemical, Cavia porcellus. Particulars: glycine-activated (cleaved) enzyme; Tris pH 7.5, 37 °C.
Test [2] addresses cleaved gpASNase3 protomer (α- and β-subunit), Asp-bound (Cavia porcellus (guinea pig)). The experiment in a line: crystal structure.

In general, Km refers to the substrate concentration at which the rate is half of its maximum. On to `NC(=O)C[C@H](N)C(=O)O` [L-Asn], for which the Km in test [1] turned out to be 2240 ± 140 µM.

With `N[C@@H](CC(=O)N[C@@H](Cc1ccccc1)C(=O)O)C(=O)O` [β-L-Asp-L-Phe], the Km in test [1] was 410 ± 30 µM.

Usually stoichiometry N stands for the number of molecules, sites or subunits per partner or assembly. Take “cleaved gpASNase3 protomer (α- and β-subunit), Asp-bound (complex)”: the stoichiometry N in test [2] came out at 2.
